Values joined by “and” are separate entries in the source; they are usually repeats but may differ in a detail not shown here. Equal entries are not always repeated.
Experiments:
[1] = system: GLP1R; assay: Insulin secretion in isolated Glp1r+/+ and Glp1r(GE)−/− islets; assay type: cell-based, mouse; conditions: for Insulin (secreted/total): G16.7+Ex4 (10 nM), individual repeats, listed as Ex4
Text: For all statistical tests, *P < 0.05, **P < 0.01 and NS, non-significant. […] Mean ± s.e.m. are shown. Source data are provided as a Source Data file.

[2] = target: T1, GLP1R (Homo sapiens, UniProt P43220); assay: HTRF cAMP assay in HEK293-SNAP_GLP1R cells, agonist and antagonist modes, with or without PAM BETP; assay type: cell-based; conditions: n = 4 independent assays; for antagonist properties against GLP-1-induced cAMP production: applied at 1 µM, 30 min GLP-1 stimulation; for agonist or partial agonist activity (cAMP): ligand alone, 30 min
T1 construct: expressed in transfected cells
T1 sequence (P43220 24-463): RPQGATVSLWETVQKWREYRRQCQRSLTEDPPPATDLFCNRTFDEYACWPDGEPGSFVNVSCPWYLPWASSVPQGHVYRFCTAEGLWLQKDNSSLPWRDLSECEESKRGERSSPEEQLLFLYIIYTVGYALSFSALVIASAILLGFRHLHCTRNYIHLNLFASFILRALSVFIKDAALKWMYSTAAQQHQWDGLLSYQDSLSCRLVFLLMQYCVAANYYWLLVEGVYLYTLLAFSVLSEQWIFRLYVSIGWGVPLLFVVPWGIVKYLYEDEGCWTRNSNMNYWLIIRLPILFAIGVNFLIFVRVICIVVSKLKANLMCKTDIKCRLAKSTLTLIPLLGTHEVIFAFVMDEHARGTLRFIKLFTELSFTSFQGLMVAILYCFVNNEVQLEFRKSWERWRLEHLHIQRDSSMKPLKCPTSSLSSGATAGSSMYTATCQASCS
Description: (§1) Mean ± s.e.m. are shown. **P < 0.01 for all statistical tests. Source data are provided as a Source Data file.
Potency for cAMP generation and inhibition was tested in heterologous expression systems, comprising either stable CHO-K1-SNAP_GLP1R or HEK-SNAP_GLP1R cells, or transiently transfected YFP-AD293-SNAP_GLP1R cells. Briefly, cells were incubated with increasing concentrations of compound with and without allosteric modulator for 30 min, before harvesting, lysis and measurement of cAMP using either cAMP-Glo^TM (Promega) or HTRF (Cisbio) assays, according to the manufacturer’s instructions. All assays were performed in the presence of 100–500 µM IBMX to inhibit phosphodiesterase activity. EC50 values were calculated using log concentration–response curves fitted with a three-parameter or four-parameter equation. […]
pharmacology. HTRF cAMP assays in HEK-SNAP_GLP1R cells in agonist and antagonist modes, stimulated with ligand for 30 min. Note that LUXendins are GLP1R antagonists […]
are shown. Source data are provided as a Source Data file.
(1 picture or pasted object on this page, not shown here)

[3] = system: GLP1R; assay: Surface GLP1R expression in islets, GLP1R monoclonal antibody staining; assay type: cell-based, mouse; conditions: LUXendin555 250 nM, LUXendin645 100 nM, Ex9 250 nM
Text: as §1

[4] = system: GLP1R; assay: cAMP imaging in islets with FRET probe Epac2-camps; assay type: cell-based, mouse; conditions: Glp1r+/+ versus Glp1r(GE)−/− islets
Text: Islets were transduced with adenovirus harboring the FRET sensor, Epac2-camps[56] (a kind gift from Prof. Dermot Cooper, University of Cambridge), before imaging using a Crest X-Light spinning disk system coupled to a Nikon Ti-E base and ×10/0.4 NA objective. Excitation was delivered at λ = 430–450 nm using a Lumencor Spectra X light engine. Emitted signals were detected at λ = 460–500 and λ = 520–550 nm for Cerulean and Citrine, respectively, using a Photometrics Delta Evolve EM-CCD. Imaging was performed in HEPES–bicarbonate buffer, containing (in mmol/L) 120 NaCl, 4.8 KCl, 24 NaHCO3, 0.5 Na2HPO4, 5 HEPES, 2.5 CaCl2, 1.2 MgCl2, and 3–17 D-glucose.

Exendin4(1–39) was tested, and the “Exendin4(1–39)-stimulated insulin secretion in Glp1r(GE)−/− islets” value ([1]; Ex4 10 nM) was “absence of Exendin4(1–39)-stimulated insulin secretion”, the “Insulin (secreted/total)” value ([1]; KO islets) was 0.004511 and 0.004222 and 0.01074 and 0.01469 and 0.006361 and 0.004456 and 0.008025 and 0.00578 and 0.004129 and 0.001581 and 0.003759 and 0.00219 and 0.001686 and 0.003265 and 0.005154 and 0.02304 and 0.01055 and 0.00295 and the “Insulin (secreted/total)” value ([1]; WT islets) was 0.004112 and 0.004627 and 0.005837 and 0.009517 and 0.006319 and 0.005338 and 0.01271 and 0.01517 and 0.02135 and 0.009713 and 0.003732 and 0.0026 and 0.01717 and 0.03657 and 0.02723 and 0.004332.

For Exendin4(9–39), the “antagonist properties against GLP-1-induced cAMP production” value [2] was “similarly blocked”, the “agonist or partial agonist activity (cAMP)” value [2] was “No agonist or partial agonist activity was detected” and the “GLP1R surface expression in islets” value [3] was “no differences”.

With “Liraglutide (HAEGTFTSDVSSYLEGQAAKEFIAWLVRGRG; chains of the INN, looked up) [incretin-mimetic]” the “stimulation of cAMP rises in islets” value [4] was “only able to stimulate cAMP rises in islets from wild-type”.

“S39C-Exendin4(9–39): S39C mutant of Exendin4(9–39) with a C-terminal thiol handle” was tested, and the “antagonist properties against GLP-1-induced cAMP production” value [2] was “similarly blocked” and the “agonist or partial agonist activity (cAMP)” value [2] was “No agonist or partial agonist activity was detected”.
